Source: article PMC9227305, “Photoinduced Synthesis of Methylated Marine Cyclopeptide Galaxamide Analogs with Isoindolinone as Anticancer Agents” (Marine Drugs, 2022)
*1 amine or outer side, *2 acyl side, *3 side chain or, on linkers, in order; H or OH if unused. Where a SMILES comes first, the peptide text is derived from it. [ ]: non-standard residue; d: D form. X1 = O=C1c2ccccc2[C@@](O)(CN(Cc2ccccc2)[*:1])N1CC(=O)[*:2]; NMeL = CN[C@@H](CC(C)C)C(=O)O

Legend:
HepG-2 cells [1] = experiment: Cell cycle analysis by PI flow cytometry; type: cell-based, human
Description: The four phases in the cell cycle, mitosis (M), gap 1 (G1), synthesis of DNA (S), and gap 2 (G2), can be analysized by a commonly used dye, propidium iodide (PI), which could intercalate into the major groove of double-stranded DNA and produce a highly fluorescent adduct that can be detected due to its broad emission around 600 nm. In this research, the drug-treated tumor cells were fixed overnight at 4 °C with 70% ice-cold ethanol and then treated with Rnase A/PI for 60 min at 37 °C and analyzed by flow cytometry.
HepG-2 cells were inoculated in 6-well plates and incubated for 24 h. Then, different concentrations of compound 8 were added to the wells and incubated for the required time. The collected cells in the experimental and control groups were digested with trypsin, centrifuged (1000 r/min, 5 min), resuspended in PBS and fixed by 70% ice ethanol (3 mL) at −20 °C for 24 h. Then, cells were washed twice with PBS and resuspended in PBS (0.9 mL), then treated with 100 µL RNase (100 µg/mL) for 30 min at 37 °C. After centrifuging the mixture for 5 min, the cells were resuspended in 50 µg/mL PBS and stained with 600 µL of PI solution (Beyotime Biotechnology, Shanghai, China) for 60 min at 4 °C to stain. Finally, the physical properties of individual cells at different mitotic stages were analyzed by flow cytometry (BD Accuri C6, BD Biosciences, Franklin Lakes, NJ, USA).

HepG-2 cells [2] = experiment: Intracellular Ca2+ level, Fluo-3 AM flow cytometry; type: cell-based, human; settings: 24 h treatment
Text: It has been clear that subtle changes in Ca^2+ concentration, such as intracellular calcium overload, can regulate and trigger apoptosis by inducing the production of mitochondrial trifunctional protein [24]. In this paper, we tried to study the influence of our prepared cyclic peptide on the intracellular calcium ion concentration. The cell-permeable fluorescent dye, Fluo-3 AM, is the most commonly used indicator to detect intracellular calcium ion concentration. […] Based on this principle, intracellular calcium ion concentrations can be detected by flow cytometry. In this paper, HepG-2 cells treated with solvent and the desired concentration of compound 8 for 24 h were collected and co-incubated with Fluo-3 AM. After loading, intracellular Ca^2+ levels were measured by flow cytometry.
Cells incubated in 6-well plates were treated in a similar way as mentioned above, and then 100 µL of Fluo-3 AM (5 µM) was added and incubated for 1 h at 37 °C away from light. After rewashing the cells, the suspended precipitate in PBS was checked by flow cytometry (excitation at 488 nm and emission at 525 nm).

HepG-2 cells [3] = experiment: cells; settings: compound 8 vs compound 4
Text: (§1) The antitumor activity of the prepared cyclic peptides against human hepatocellular carcinoma cells (HepG-2), human cervical cancer cell lines (HeLa) and human breast cancer cells (MDA-MB-231) was examined by MMT assay, and the mouse fibroblast L929 cells were used as the model cells to evaluate the toxicity of cyclopeptides to normal cell lines. Due to the absence of an authentic standard, taxol was chosen as a control because it is a widely used chemotherapeutic drug for the treatment of various cancers, including liver cancer.
(§2) Samples were dissolved in DMSO and diluted into different concentrations ([…], 18.75, 25, 37.5, 50, 75, 100 and 250 μM) and stored at 4 °C. Cells in the logarithmic growth phase were digested with trypsin and then seeded in 96-well plates at a density of 2 × 10^4 cells/well in 100 μL of culture medium. The cells were treated with different concentrations of the tested compound, and a blank control group without the drug was also set up. Six wells were repeated for each dose. After 48 h of co-incubation, MTT solution (100 μL, 0.5 mg/mL) was added, followed by incubation for another 4 h. After discarding the supernatant, 100 μL of DMSO was added per well, and the absorbance (OD) values were measured at 490 nm using an enzyme marker. Cell viability was calculated by the formula: Cell viability (%) = As/Ab × 100% (where As is the absorbance value of the experimental group and Ab is the absorbance value of the blank group). The obtained data were processed using SPSS19 software to obtain IC50 values.

L929 cells = experiment: cells; settings: 48 h
Text: as §1, §2

cytochrome C = experiment: Western blot of cytochrome C in the cytosol; type: cell-based, human; settings: HepG-2 cells, increasing peptide concentrations, vs control
Text: Moreover, as mentioned previously and in others’ reports, the apoptosis of HepG-2 induced by galaxamide might be related to a mitochondria-mediated pathway. It has been known that with the decrease in the mitochondrial membrane potential, the cytochrome C in mitochondrion is released to the cytosol and can be detected. Therefore, we have also checked the content of cytochrome C in the cytosol by Western blotting to further verify the mitochondrial apoptotic pathway.
HepG-2 cells (5 × 10^6 cells) in the medium were treated with different concentrations of compounds for the required time and were washed twice with ice-cold PBS. The cells were scraped into cell lysate buffer containing phenylmethanesulfonyl fluoride (PMSF) and transferred to a 1.5 mL centrifuge tube, then lysed for 20 min at 4 °C. After centrifuging (12,000 r/min) for 20 min, the supernatant was collected and measured using the BCA Protein Assay Kit (Beyotime Biotechnology Co. Ltd., Shanghai, China)). Protein samples were then electrophoresed on 12% SDS-polyacrylamide gels and transferred to polyvinylidene difluoride (PVDF) membranes. The membranes were then closed with 5% skim milk in Tris-buffered saline Tween 20 (TBST) (containing 50 mM Tris-HCl, 150 mM NaCl and 0.02% Tween-20) for 2 h. […]

In the case of `CC(C)C[C@@H]1NC(=O)CN2C(=O)c3ccccc3[C@@]2(O)CN(Cc2ccccc2)C(=O)[C@H](CC(C)C)NC(=O)[C@H](CC(C)C)N(C)C(=O)[C@H](CC(C)C)NC(=O)[C@H](CC(C)C)NC1=O` [Compound 8, 3-Hydroxy-isoindolinone-cyclo-Gly-Leu-N-Me-Leu-Leu-Leu-Leu] (cyclo(LL[NMeL]L[X1]L)), the “4N (G2/M phase) cells” value (HepG-2 cells [1]; 5.5 μM, 48 h) is reported as 12.0%, the “4N (G2/M phase) cells” value (HepG-2 cells [1]; 11 μM, 12 h) is reported as 10.1% and the “4N (G2/M phase) cells” value (HepG-2 cells [1]; 11 μM, 24 h) is reported as 17.4%. For the same molecule, the “4N (G2/M phase) cells” value (HepG-2 cells [1]; 11 μM, 48 h) was 25.8%, the “4N (G2/M phase) cells” value (HepG-2 cells [1]; 22 μM, 48 h) was 33.0% and the “Fluo-3 fluorescence intensity (intracellular Ca2+) relative to control group” value (HepG-2 cells [2]) was 4.83 times. The “antitumor activity relative to compound 4” value (HepG-2 cells [3]) was “eight times stronger”, the IC50 (L929 cells) was over 400 µM and the “level of cytochrome C in the cytosol” value (cytochrome C) was “increased significantly”.
